Data taken from patent publication US10004701B2, “Methods and compositions for treating infection” (UNIVERSITY OF ROCHESTER, priority 2012, dated 2018).
Where two headings read alike, the source gives them in different places.

Assays:
Test in all cases: AK assay 384-well format, Prestwick library screening
P. aeruginosa = format: cell-based, Pseudomonas aeruginosa; details: 50 μM final drug concentration; for fold induction at 50 µM: Pseudomonas aeruginosa, 3 h
[1] = system: A. baumannii strain 98-37-09; format: cell-based, Acinetobacter baumannii; details: 50 μM final drug concentration; for fold induction at 50 µM: Acinetobacter baumannii, 983709, 3 h
E. coli = format: cell-based, Escherichia coli; details: 50 μM final drug concentration; for fold induction at 50 µM: Escherichia coli, 3 h
E. faecium = format: cell-based, Enterococcus faecium; details: 50 μM final drug concentration; for fold induction at 50 µM: Enterococcus faecium, 3 h
E. cloacae = format: cell-based, Enterobacter cloacae; details: 50 μM final drug concentration; for fold induction at 50 µM: Enterobacter cloacae, 3 h
[2] = system: S. aureus strain USA300-0114; format: cell-based, Staphylococcus aureus; details: 50 μM final drug concentration; for fold induction at 50 µM: Staphylococcus aureus, USA300, 3 h
K. pneumoniae = format: cell-based, Klebsiella pneumoniae; details: 50 μM final drug concentration; for fold induction at 50 µM: Klebsiella pneumoniae, 3 h
[3] = planktonic, cutoff for positive-scoring molecules 3-fold increase, read-out: AK-based Prestwick Library Screening Results, P. aeruginosa (fold increase in extracellular AK activity)
[4] = planktonic, cutoff for positive-scoring molecules 3-fold increase, read-out: AK-based Prestwick Library Screening Results, A. baumannii (fold increase in extracellular AK activity)
[5] = planktonic, cutoff for positive-scoring molecules 3-fold increase, read-out: AK-based Prestwick Library Screening Results, E. coli (fold increase in extracellular AK activity)
[6] = planktonic, cutoff for positive-scoring molecules 3-fold increase, read-out: AK-based Prestwick Library Screening Results, E. faecium (fold increase in extracellular AK activity)
[7] = planktonic, cutoff for positive-scoring molecules 3-fold increase, read-out: AK-based Prestwick Library Screening Results, E. cloacae (fold increase in extracellular AK activity)
[8] = planktonic, cutoff for positive-scoring molecules 3-fold increase, read-out: AK-based Prestwick Library Screening Results, S. aureus (fold increase in extracellular AK activity)
[9] = planktonic, cutoff for positive-scoring molecules 3-fold increase, read-out: AK-based Prestwick Library Screening Results, K. pneumoniae (fold increase in extracellular AK activity)

Work on `O=C(CCCCC(=O)Nc1c(I)cc(I)c(C(=O)O)c1I)Nc1c(I)cc(I)c(C(=O)O)c1I` [Iodipamide] yielded a fold induction at 50 µM (P. aeruginosa; cutoff for positive-scoring molecules 3-fold increase, read-out: AK-based Prestwick Library Screening Results, P. aeruginosa (fold increase in extracellular AK activity)) of 1.1, a fold induction at 50 µM ([1]; cutoff for positive-scoring molecules 3-fold increase, read-out: AK-based Prestwick Library Screening Results, A. baumannii (fold increase in extracellular AK activity)) of 1.2 and a fold induction at 50 µM (E. coli; cutoff for positive-scoring molecules 3-fold increase, read-out: AK-based Prestwick Library Screening Results, E. coli (fold increase in extracellular AK activity)) of 1.2. For the same compound, the fold induction at 50 µM (E. faecium; cutoff for positive-scoring molecules 3-fold increase, read-out: AK-based Prestwick Library Screening Results, E. faecium (fold increase in extracellular AK activity)) was 1, the fold induction at 50 µM (E. cloacae; cutoff for positive-scoring molecules 3-fold increase, read-out: AK-based Prestwick Library Screening Results, E. cloacae (fold increase in extracellular AK activity)) was 1.6 and the fold induction at 50 µM ([2]; cutoff for positive-scoring molecules 3-fold increase, read-out: AK-based Prestwick Library Screening Results, S. aureus (fold increase in extracellular AK activity)) was 1. For the same compound, the fold induction at 50 µM (K. pneumoniae; cutoff for positive-scoring molecules 3-fold increase, read-out: AK-based Prestwick Library Screening Results, K. pneumoniae (fold increase in extracellular AK activity)) was 1.
In the case of `CC1(C)O[C@@H]2C[C@H]3[C@@H]4C[C@H](F)C5=CC(=O)C=C[C@]5(C)[C@H]4[C@@H](O)C[C@]3(C)[C@]2(C(=O)CO)O1` [Flunisolide], the fold induction at 50 µM (P. aeruginosa; planktonic, cutoff for positive 3-fold increase, read-out: AK-based Prestwick Library Screening Results, P. aeruginosa (fold increase in extracellular AK activity)) is reported as 0.3, the fold induction at 50 µM ([1]; planktonic, cutoff for positive 3-fold increase, read-out: AK-based Prestwick Library Screening Results, A. baumannii (fold increase in extracellular AK activity)) is reported as 0.4 and the fold induction at 50 µM (E. coli; planktonic, cutoff for positive 3-fold increase, read-out: AK-based Prestwick Library Screening Results, E. coli (fold increase in extracellular AK activity)) is reported as 0.5. The fold induction at 50 µM (E. faecium; planktonic, cutoff for positive 3-fold increase, read-out: AK-based Prestwick Library Screening Results, E. faecium (fold increase in extracellular AK activity)) was 0.9, the fold induction at 50 µM (E. cloacae; planktonic, cutoff for positive 3-fold increase, read-out: AK-based Prestwick Library Screening Results, E. cloacae (fold increase in extracellular AK activity)) was 0.3 and the fold induction at 50 µM ([2]; planktonic, cutoff for positive 3-fold increase, read-out: AK-based Prestwick Library Screening Results, S. aureus (fold increase in extracellular AK activity)) was 0.4. The fold induction at 50 µM (K. pneumoniae; planktonic, cutoff for positive 3-fold increase, read-out: AK-based Prestwick Library Screening Results, K. pneumoniae (fold increase in extracellular AK activity)) was 0.5.
For `NS(=O)(=O)c1cc2c(cc1Cl)N=C(CSCc1ccccc1)NS2(=O)=O` [Benzthiazide], the fold induction at 50 µM (P. aeruginosa; [3]) was 0.9, the fold induction at 50 µM [1, 4] was 0.9 and the fold induction at 50 µM (E. coli; [5]) was 0.9. It also gave a fold induction at 50 µM (E. faecium; [6]) of 1.4, a fold induction at 50 µM (E. cloacae; [7]) of 1.1 and a fold induction at 50 µM [2, 8] of 0.8. The fold induction at 50 µM (K. pneumoniae; [9]) was 0.8.
With `COc1cc(-c2ccc(N=Nc3ccc4c(S(=O)(=O)[O-])cc(S(=O)(=O)[O-])c(N)c4c3O)c(OC)c2)ccc1N=Nc1ccc2c(S(=O)(=O)[O-])cc(S(=O)(=O)[O-])c(N)c2c1O.[Na+].[Na+].[Na+].[Na+]` [Chicago sky blue 6B] the “AK-based Prestwick Library Screening Results, P. aeruginosa (increase in extracellular AK activity)” value (P. aeruginosa; planktonic P. aeruginosa, cutoff for positive-scoring molecules 3-fold increase) was 0.4, the “AK-based Prestwick Library Screening Results, A. baumannii (increase in extracellular AK activity)” value ([1]; planktonic A. baumannii, cutoff for positive-scoring molecules 3-fold increase) was 0.4 and the “AK-based Prestwick Library Screening Results, E. coli (increase in extracellular AK activity)” value (E. coli; planktonic E. coli, cutoff for positive-scoring molecules 3-fold increase) was 0.5. For the same compound, the “AK-based Prestwick Library Screening Results, E. faecium (increase in extracellular AK activity)” value (E. faecium; planktonic E. faecium, cutoff for positive-scoring molecules 3-fold increase) was 0.5, the “AK-based Prestwick Library Screening Results, E. cloacae (increase in extracellular AK activity)” value (E. cloacae; planktonic E. cloacae, cutoff for positive-scoring molecules 3-fold increase) was 0.9 and the “AK-based Prestwick Library Screening Results, S. aureus (increase in extracellular AK activity)” value ([2]; planktonic S. aureus, cutoff for positive-scoring molecules 3-fold increase) was 0.0. For the same compound, the “AK-based Prestwick Library Screening Results, K. pneumoniae (increase in extracellular AK activity)” value (K. pneumoniae; planktonic K. pneumoniae, cutoff for positive-scoring molecules 3-fold increase) was 0.3.
`Cc1ccc(Cl)c(Nc2ccccc2C(=O)O)c1Cl` gave a fold induction at 50 µM (P. aeruginosa; planktonic P. aeruginosa, 384-well, cutoff for positive-scoring molecules 3-fold increase, read-out: AK-based Prestwick Library Screening Results: P. aeruginosa (increase in extracellular AK activity)) of 1.2, a fold induction at 50 µM ([1]; planktonic A. baumannii, 384-well, cutoff for positive-scoring molecules 3-fold increase, read-out: AK-based Prestwick Library Screening Results: A. baumannii (increase in extracellular AK activity)) of 1.2 and a fold induction at 50 µM (E. coli; planktonic E. coli, 384-well, cutoff for positive-scoring molecules 3-fold increase, read-out: AK-based Prestwick Library Screening Results: E. coli (increase in extracellular AK activity)) of 1.1. It also gave a fold induction at 50 µM (E. faecium; planktonic E. faecium, 384-well, cutoff for positive-scoring molecules 3-fold increase, read-out: AK-based Prestwick Library Screening Results: E. faecium (increase in extracellular AK activity)) of 1.2, a fold induction at 50 µM (E. cloacae; planktonic E. cloacae, 384-well, cutoff for positive-scoring molecules 3-fold increase, read-out: AK-based Prestwick Library Screening Results: E. cloacae (increase in extracellular AK activity)) of 1.4 and a fold induction at 50 µM ([2]; planktonic S. aureus, 384-well, cutoff for positive-scoring molecules 3-fold increase, read-out: AK-based Prestwick Library Screening Results: S. aureus (increase in extracellular AK activity)) of 0.6. The fold induction at 50 µM (K. pneumoniae; planktonic K. pneumoniae, 384-well, cutoff for positive-scoring molecules 3-fold increase, read-out: AK-based Prestwick Library Screening Results: K. pneumoniae (increase in extracellular AK activity)) was 1.
`CCCCc1ccc2[nH]c(NC(=O)OC)nc2c1` [Parbendazole] showed a fold induction at 50 µM (P. aeruginosa; planktonic P. aeruginosa, […], read-out: AK-based Prestwick library screening result, P. aeruginosa (fold increase in extracellular AK activity)) of 0.7, a fold induction at 50 µM ([1]; planktonic A. baumannii, […], read-out: AK-based Prestwick library screening result, A. baumannii (fold increase in extracellular AK activity)) of 0.8 and a fold induction at 50 µM (E. coli; planktonic E. coli, […], read-out: AK-based Prestwick library screening result, E. coli (fold increase in extracellular AK activity)) of 0.7. The fold induction at 50 µM (E. faecium; planktonic E. faecium, […], read-out: AK-based Prestwick library screening result, E. faecium (fold increase in extracellular AK activity)) was 0.6, the fold induction at 50 µM (E. cloacae; planktonic E. cloacae, […], read-out: AK-based Prestwick library screening result, E. cloacae (fold increase in extracellular AK activity)) was 1.2 and the fold induction at 50 µM ([2]; planktonic S. aureus, […], read-out: AK-based Prestwick library screening result, S. aureus (fold increase in extracellular AK activity)) was 0.7. The fold induction at 50 µM (K. pneumoniae; planktonic K. pneumoniae, […], read-out: AK-based Prestwick library screening result, K. pneumoniae (fold increase in extracellular AK activity)) was 0.7.
Compound `CN[C@H]1CC[C@@H](c2ccc(Cl)c(Cl)c2)c2ccccc21` [Sertraline] has a fold induction at 50 µM (P. aeruginosa; planktonic P. aeruginosa, positive cutoff 3-fold increase, read-out: AK-based Prestwick library screening result, P. aeruginosa (fold increase in extracellular AK activity)) of 1.2, a fold induction at 50 µM ([1]; planktonic A. baumannii, positive cutoff 3-fold increase, read-out: AK-based Prestwick library screening result, A. baumannii (fold increase in extracellular AK activity)) of 2.9 and a fold induction at 50 µM (E. coli; planktonic E. coli, positive cutoff 3-fold increase, read-out: AK-based Prestwick library screening result, E. coli (fold increase in extracellular AK activity)) of 1.6. For the same compound, the fold induction at 50 µM (E. faecium; planktonic E. faecium, positive cutoff 3-fold increase, read-out: AK-based Prestwick library screening result, E. faecium (fold increase in extracellular AK activity)) was 1.1, the fold induction at 50 µM (E. cloacae; planktonic E. cloacae, positive cutoff 3-fold increase, read-out: AK-based Prestwick library screening result, E. cloacae (fold increase in extracellular AK activity)) was 1.5 and the fold induction at 50 µM ([2]; planktonic S. aureus, positive cutoff 3-fold increase, read-out: AK-based Prestwick library screening result, S. aureus (fold increase in extracellular AK activity)) was 1.6. The fold induction at 50 µM (K. pneumoniae; planktonic K. pneumoniae, positive cutoff 3-fold increase, read-out: AK-based Prestwick library screening result, K. pneumoniae (fold increase in extracellular AK activity)) was 1.4.
`COC(=O)C1=C(C)NC(C)=C(C(=O)OCC(C)C)C1c1ccccc1[N+](=O)[O-]` (centres unmarked) [Nisoldipine] gave a fold induction at 50 µM (P. aeruginosa; [3]) of 0.8, a fold induction at 50 µM [1, 4] of 1.4 and a fold induction at 50 µM (E. coli; [5]) of 0.9. It also gave a fold induction at 50 µM (E. faecium; [6]) of 0.9, a fold induction at 50 µM (E. cloacae; [7]) of 1 and a fold induction at 50 µM [2, 8] of 0.4. The fold induction at 50 µM (K. pneumoniae; [9]) was 0.7.
